Here are results for seven molecules from patent EP0510473A1, “Thienyl-nonatetraenoic acid derivatives with anti-rheumatic activity” (F. HOFFMANN-LA ROCHE AG, priority 1991, dated 1992).

Molecules are shown by their SMILES. Marks after values point to notes of the source that are not given here.

Series [1] relates to adjuvant arthritis. Description: Established adjuvant arthritis model (chronic adjuvant arthritis test). The format is in vivo, male Charles River Lewis rats. The settings on record: 7 days; for Change in Paw Volume (ml) / Change in body weight(g): difference from day 21 to day 28; for % Change in plasma fibrinogen: relative to vehicle-treated arthritic animals.
In series [2] the test system is adjuvant arthritis. The series is described as above. It is filed as in vivo, male Charles River Lewis rats. The settings on record: for Change in Paw Volume (ml) / Change in body weight(g): difference from day 21 to day 28; for % Change in plasma fibrinogen: relative to vehicle-treated arthritic animals. The procedure:
That the compounds of this invention are effective anti-arthritic agents can be seen from the results obtained when these compounds are administered to rats in accordance with the chronic adjuvant arthritis test system disclosed in Billingham and Davies "Handbook of Experimental Pharmacology" (editors J.R. Vane and S.H. Ferreira) Vol. 50/II, pg. 108-144, Springer-Verlag, Berlin, 1979). In this procedure, adjuvant arthritis was induced by the injection on day 0 to 0.10 ml of adjuvant (a suspension of heat-killed, dessicated Mycobacterium butyricum, 0.5% (w/v), in heavy mineral oil containing 0.2% digitonin) subplantarly into the right hind paw ("developing" model) or the base of the tail ("established" model) of male Charles River Lewis rats (120-140 g) that were housed individually and given food and water ad lib. Paw volumes (both hind paws) were measured immediately after injection of the adjuvant. Paw volumes were also measured at selected time intervals to follow the development of inflammation-induced swelling in the arthritic paws by immersion of the paw to the level of the lateral malleolus in a mercury plethysmograph. In the established adjuvant arthritis model [Table 2], the arthritis was allowed to develop untreated for 21 days and then the arthritic animals were divided into experimental groups with approximately equal mean hind paw volumes. Starting on day 21, the arthritic animals were treated by intubation once a day with drugs for 7 days (Tween 80 as vehicle). Arthritic control animals received daily doses of the vehicle only. On day 28, the animals were sacrificed, plasma was collected and plasma fibrinogen levels were determined as described above. Antiinflammatory activity was determined by comparing the change in paw swelling in drug-treated arthritic animals (combined hind paw volume on day 28 minus combined hind paw volume on day 21) with the change in paw swelling in vehicle-treated arthritic animals. Drug-induced changes in plasma fibrinogen were also used to assess the antiinflammatory effects of the test drugs.

Series [3] in a line: Serum triglycerides and cholesterol in normal animals treated for 14 days. It is filed as in vivo, rats. The settings on record: for Cholesterol (% change): serum, normal rats, vs vehicle-treated normal rats. Here is the method: Normal animals were also treated with the test retinoids for 14 days and serum samples were collected for the determination of serum triglycerides and cholesterol. Triglyceride and cholesterol levels in the drug-treated animals were compared with triglyceride and cholesterol levels in vehicle-treated animals.

In series [4] the test system is adjuvant arthritis. Description: Developing adjuvant arthritis model (chronic adjuvant arthritis test). The format is in vivo, male Charles River Lewis rats. The settings on record: for % Change in Paw Volume (day 23) left / % Change in Paw Volume (day 23) right / % Change in plasma fibrinogen: vs vehicle-treated arthritic animals; for Body Weight gain(g): body weight on day 23 minus day 0. The procedure: That the compounds of this invention are effective anti-arthritic agents can be seen from the results obtained when these compounds are administered to rats in accordance with the chronic adjuvant arthritis test system disclosed in Billingham and Davies "Handbook of Experimental Pharmacology" (editors J.R. Vane and S.H. Ferreira) Vol. 50/II, pg. 108-144, Springer-Verlag, Berlin, 1979). In this procedure, adjuvant arthritis was induced by the injection on day 0 to 0.10 ml of adjuvant (a suspension of heat-killed, dessicated Mycobacterium butyricum, 0.5% (w/v), in heavy mineral oil containing 0.2% digitonin) subplantarly into the right hind paw ("developing" model) or the base of the tail ("established" model) of male Charles River Lewis rats (120-140 g) that were housed individually and given food and water ad lib. Paw volumes (both hind paws) were measured immediately after injection of the adjuvant. Paw volumes were also measured at selected time intervals to follow the development of inflammation-induced swelling in the arthritic paws by immersion of the paw to the level of the lateral malleolus in a mercury plethysmograph. In the developing adjuvant arthritis model [Table 1], drugs were administered once a day (starting on the day of adjuvant injection and continuing for 23 days) by intubation using Tween 80 (polyoxyethylene sorbitan mono-oleate) at a dose of 0.25 ml/100 g body weight as the vehicle. Arthritic control rats received daily doses of the vehicle only. On day 23, i.e., approximately 24 hours after the last dose of drug, the rats were sacrificed, plasma was collected and plasma fibrinogen levels were determined (ammonium sulfate turbidimetric method) as described by Exner et al., Amer. J. Clin. Path., 71:521-527 (1979). Anti-inflammatory activity of the test drugs were determined by comparing the extent of paw swelling (paw volume on day 23 minus the paw volume on day 0) in drug-treated arthritic rats with the extent of paw swelling in the vehicle-treated arthritic rats. Drug induced decreases in the level of plasma fibrinogen, an acute phase protein that is elevated in the plasma of rats with adjuvant-induced arthritis, were also used to quantitiate the anti-inflammatory activity.

Setting [5] is: 75 µMoles/Kg p.o. tween 80, 7 days.
Setting [6] is: 25 μ Moles/Kg Po. Tween 80, daily for 23 days.
The mark [7] stands for this setting: 75 μ Moles/Kg Po. Tween 80, daily for 23 days.

In the case of `CCCCOc1ccsc1/C=C/C(C)=C/C=C/C(C)=C/C(=O)O`, in the series with adjuvant arthritis [1] (75 µMoles/Kg i.p. corn oil), the “Change in Paw Volume (ml)” value is -0.59* (1.14) ml, the “Change in body weight(g)” value is listed as 11(10) g and the “% Change in plasma fibrinogen” value is listed as -55* %.

In the case of `CCCCCCCCCOc1cc(C)sc1/C=C/C(C)=C/C=C/C(C)=C/C(=O)O`, in the series with adjuvant arthritis [2] (setting [5]), the “Change in Paw Volume (ml)” value is listed as 0.06* (1.03) ml, the “Change in body weight(g)” value was 15(14) g and the “% Change in plasma fibrinogen” value is given as -25* %.

For the molecule `CC1=C(/C=C/C(C)=C/C=C/C(C)=C/C(=O)Nc2ccc(O)cc2)C(C)(C)CCC1` [4-hydroxyphenyl retinamide], in series [3] (no dose given), the hypertriglyceridemia result is “hypertriglyceridemia” and the serum cholesterol elevation result is “serum cholesterol elevation”.

For `CCCCCCCCCOc1ccsc1/C=C/C(C)=C/C=C/C(C)=C/C(=O)O` [the 1st table, row 4], the “Cholesterol (% change)” value is -14* % in series [3] (25 μ Moles/Kg Po. Tween 80) and -25* % in series [3] (75 μ Moles/Kg Po. Tween 80). Further, the “% Change in Paw Volume (day 23) left” value with adjuvant arthritis [4] (setting [6]) is given as -50* %; in the series on adjuvant arthritis [4] (setting [7]) it was -84* %. Besides, the “% Change in Paw Volume (day 23) right” value is -50* % in the series with adjuvant arthritis [4] (setting [6]) and -68* % in the series on adjuvant arthritis [4] (setting [7]). Also, the “% Change in plasma fibrinogen” value in the series with adjuvant arthritis [4] (setting [6]) was -45* %; in the series on adjuvant arthritis [4] (setting [7]), -55* %. For the same molecule, the figures for the “Body Weight gain(g)” value in the series with adjuvant arthritis [4] (25 μ Moles/Kg Po. Tween 80) and with adjuvant arthritis [4] (75 μ Moles/Kg Po. Tween 80) were 31(37) g and 27(30) g, respectively.

In the case of `CC1=C(/C=C/C(C)=C/C=C/C(C)=C/C(=O)Nc2ccc(O)cc2)C(C)(C)CCC1` [the 1st table, row 6, 4-hydroxyphenyl retinamide, reference compound], the “Cholesterol (% change)” value in series [3] (75 μ Moles/Kg Po. Tween 80) is listed as “+66* %”. Further, in the series with adjuvant arthritis [4] (setting [7]), the “% Change in Paw Volume (day 23) left” value was -51* %, the “% Change in Paw Volume (day 23) right” value was -49* % and the “% Change in plasma fibrinogen” value is listed as -42* %. Further, the “Body Weight gain(g)” value with adjuvant arthritis [4] (75 μ Moles/Kg Po. Tween 80) is 39(37) g.

In the case of `CCCCCCCCCOc1ccsc1/C=C/C(C)=C/C=C/C(C)=C/C(=O)O` [the 2nd table, row 3], in the series with adjuvant arthritis [2] (25 µMoles/Kg p.o., 7 days), the “Change in Paw Volume (ml)” value is reported as 0.15*(0.84) ml, the “Change in body weight(g)” value is reported as 9(14) g and the “% Change in plasma fibrinogen” value is reported as -32* %. In addition, in the series with adjuvant arthritis [2] (setting [5]), the “Change in Paw Volume (ml)” value is recorded as -0.63*(0.61) ml, the “Change in body weight(g)” value was 5*(15) g and the “% Change in plasma fibrinogen” value is listed as -34* %.

Regarding `CCCCCCCCCOc1ccsc1/C=C/C(C)=C/C=C/C(C)=C/C(=O)O` [the 2nd table, row 5], in the series with adjuvant arthritis [1] (10 µMoles/Kg i.p. corn oil), the “Change in Paw Volume (ml)” value is 0.18* (0.86) ml, the “Change in body weight(g)” value is on record as 11(15) g and the “% Change in plasma fibrinogen” value is on record as -18* %.
